Reference: ChEMBL document CHEMBL1932918, “AChE inhibitor: a regio- and stereo-selective 1,3-dipolar cycloaddition for the synthesis of novel substituted 5,6-dimethoxy spiro[5.3']-oxindole-spiro-[6.3″]-2,3-dihydro-1H-inden-1″-one-7-(substituted aryl)-tetrahydro-1H-pyrrolo[1,2-c][1,3]thiazole” (Bioorg Med Chem Lett, 2012)

Molecular target: Acetylcholinesterase (Electrophorus electricus, UniProt O42275)
Experiment: Inhibition of electric eel AChE using […] measured every sec for 2 mins by Ellman's method

Acetylcholinesterase, sequence (O42275 whole entry): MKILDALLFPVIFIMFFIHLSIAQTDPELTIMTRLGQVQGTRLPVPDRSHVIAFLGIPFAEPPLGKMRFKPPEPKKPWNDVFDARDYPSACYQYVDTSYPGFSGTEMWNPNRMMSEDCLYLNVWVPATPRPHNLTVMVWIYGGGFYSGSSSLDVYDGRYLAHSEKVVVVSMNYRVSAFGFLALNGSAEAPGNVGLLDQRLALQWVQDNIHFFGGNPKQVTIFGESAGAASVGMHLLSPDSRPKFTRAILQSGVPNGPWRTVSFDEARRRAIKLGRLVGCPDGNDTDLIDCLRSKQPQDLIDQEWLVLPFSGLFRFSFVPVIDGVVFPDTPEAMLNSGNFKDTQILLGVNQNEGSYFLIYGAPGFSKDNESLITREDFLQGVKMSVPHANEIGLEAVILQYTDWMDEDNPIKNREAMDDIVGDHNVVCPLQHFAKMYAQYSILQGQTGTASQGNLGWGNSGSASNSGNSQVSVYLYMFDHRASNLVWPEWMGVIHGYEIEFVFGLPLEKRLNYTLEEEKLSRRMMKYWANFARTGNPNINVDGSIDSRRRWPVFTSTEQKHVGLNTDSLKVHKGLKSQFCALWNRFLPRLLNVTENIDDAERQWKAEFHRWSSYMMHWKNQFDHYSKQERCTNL

COc1cc2c(cc1OC)C(=O)C1(C2)C(c2ccccc2)C2CSCN2C12C(=O)Nc1ccc(Cl)cc12 (stereo not given)
IC50: 2600 nM

COc1cc2c(cc1OC)C(=O)C1(C2)C(c2ccc(F)cc2)C2CSCN2C12C(=O)Nc1ccc([N+](=O)[O-])cc12 (stereo not given)
IC50: 1160 nM

COc1ccc(C2C3CSCN3C3(C(=O)Nc4ccc([N+](=O)[O-])cc43)C23Cc2cc(OC)c(OC)cc2C3=O)cc1OC (stereo not given)
IC50: 2100 nM

COc1cc2c(cc1OC)C(=O)C1(C2)C(c2ccncc2)C2CSCN2C12C(=O)Nc1ccc([N+](=O)[O-])cc12 (stereo not given)
IC50: 110 nM

COc1cc2c(cc1OC)C(=O)C1(C2)C(c2ccccc2)C2CSCN2C12C(=O)Nc1ccc([N+](=O)[O-])cc12 (stereo not given)
IC50: 3160 nM

COc1cc2c(cc1OC)C(=O)C1(C2)C(c2ccc(F)cc2)C2CSCN2C12C(=O)Nc1ccc(Cl)cc12 (stereo not given)
IC50: 1560 nM

COc1cc2c(cc1OC)C(=O)C1(C2)C(c2ccccc2)C2CSCN2C12C(=O)Nc1ccccc12 (stereo not given)
IC50: 5800 nM

COc1cc2c(cc1OC)C(=O)C1(C2)C(c2ccncc2)C2CSCN2C12C(=O)Nc1ccccc12 (stereo not given)
IC50: 480 nM

COc1cc2c(cc1OC)C(=O)C1(C2)C(c2ccncc2)C2CSCN2C12C(=O)Nc1ccc(Cl)cc12 (stereo not given)
IC50: 340 nM

COc1ccc(C2C3CSCN3C3(C(=O)Nc4ccccc43)C23Cc2cc(OC)c(OC)cc2C3=O)cc1OC (stereo not given)
IC50: 6200 nM

COc1cc2c(cc1OC)C(=O)C1(C2)C(c2ccccc2Cl)C2CSCN2C12C(=O)Nc1ccccc12 (stereo not given)
IC50: 8320 nM

COc1cc2c(cc1OC)C(=O)C1(C2)C(c2ccccc2Cl)C2CSCN2C12C(=O)Nc1ccc(Cl)cc12 (stereo not given)
IC50: 3280 nM

COc1ccc(C2C3CSCN3C3(C(=O)Nc4ccc(Cl)cc43)C23Cc2cc(OC)c(OC)cc2C3=O)cc1OC (stereo not given)
IC50: 2240 nM

COc1cc2c(cc1OC)C(=O)C1(C2)C(c2ccccc2Cl)C2CSCN2C12C(=O)Nc1ccc([N+](=O)[O-])cc12 (stereo not given)
IC50: 2120 nM

COc1cc2c(cc1OC)C(=O)C1(C2)C(c2ccc(F)cc2)C2CSCN2C12C(=O)Nc1ccccc12 (stereo not given)
IC50: 1120 nM
